Results on six compounds are retold here after patent publication US20040259936A1, “Treatment of neoplasia” (priority 2001, published 2004).

Series [1] concerns EL-4 tumor cells. The series can be described thus: Cannabinoid-induced apoptosis in vitro (TUNEL or annexin V/PI). It counts as cell-based, murine. To be noted: for induction of apoptosis (annexin/PI) compared with controls: 3 μM. As for the experimental part:
(§1) The cells were washed twice with PBS. […] Five thousand cells were analyzed per sample.

The subject of series [2] is Jurkat. The series can be described thus: Cannabinoid-induced apoptosis in vitro (TUNEL). It counts as cell-based, human. To be noted: 5 μM JWH-015, serum-free medium, 24 hours. As for the experimental part:
as §1

The test system of series [3] is Molt-4. The series can be described thus: Cannabinoid-induced apoptosis in vitro (TUNEL). Further details: induction of apoptosis (TUNEL): dose or concentration left out as unconfirmed. It counts as cell-based, human. As for the experimental part:
as §1

Series [4] has as its system Jurkat. The series can be described thus: Tumor-cell viability in vitro, trypan blue dye exclusion. It counts as cell-based, human. As for the experimental part: (§2) Measurement of the effect of cannabinoid receptor aponistson tumor-cell viability in vitro: Tumor cells were adjusted to 1×10^6 cells/mL in medium containing 5% FCS or serum-free medium. The cells (1×10^6) were cultured in 24-well plates in 2 mL medium in the presence or absence of various concentrations of cannabinoid receptor agonists for 2 to 24 hours. Finally, the cells were harvested and washed twice in PBS, and the viable cell count was determined by trypan blue dye exclusion.

Series [5] concerns Molt-4. The description is as above. It counts as cell-based, human. To be noted: Molt-4, serum-free medium, 24 hours. As for the experimental part:
as §2

For series [6] the following is noted: cited from earlier work.
Series [7] has as its system EL-4 tumor cells. Nature of the series: Tumor-cell viability in vitro, trypan blue dye exclusion. It counts as cell-based, murine. Also noted: time required to induce tumor-cell killing: dose or concentration left out as unconfirmed. The procedure: as §2
The subject of series [8] is LSA tumor cells. Described as above. The class given is cell-based, murine. To be noted: medium with 5% FCS, 24 hours. As for the experimental part: as §2
The subject of series [9] is P815 tumor cells. Described as above. The class given is cell-based, murine. Conditions: P815, medium with 5% FCS, 24 hours. As for the experimental part:
as §2

The subject of series [10] is LSA tumor cells. Nature of the series: Cannabinoid-induced apoptosis in vitro (TUNEL). It counts as cell-based, murine. To be noted: 5% FCS, 24 hours, 20 μM THC (printed 201M). The procedure:
as §1

The subject of series [11] is P815 tumor cells. Nature of the series: Cannabinoid-induced apoptosis in vitro (TUNEL). It counts as cell-based, murine. Conditions: P815, 5% FCS, 24 hours, 20 μM THC (printed 201M). As for the experimental part: as §1
The test system of series [12] is EL-4 tumor cells. Nature of the series: Tumor-cell viability and induction of apoptosis in vivo in EL-4 tumor-bearing mice. Also noted: species or system C57BL/6 mice. The procedure: Measurement of tumor-cell viability and induction of apoptosis in vivo: Groups of 5 C57BL/6 mice were injected intraperitoneally (IP) with 1×10^6 EL-4 tumor cells suspended in 0.2 mL PBS. The control mice received PBS alone. Ten days later, the mice were injected with various concentrations of THC (0, 1, 3, or 5 mg/kg […]). The mice were killed 24 hours later and the EL-4 tumor cells were harvested from the peritoneal cavity by injecting 5.0 mL PBS, followed by aspiration of the peritoneal fluid from the cavity. The contaminating red blood cells were removed with red blood lysing solution (Sigma), and the tumor cells were washed twice with PBS. The number of viable cells was determined by trypan blue dye exclusion, and apoptosis was determined using the TUNEL assay. The presence of tumor cells in the peritoneal cavity was confirmed by the ability of the cells to grow in vitro and by the phenotype (Thyl-, CD4-, CD8-).

In series [13] the test system is EL-4 tumor cells. Nature of the series: Survival of EL-4-challenged mice. It counts as in vivo, C57BL/6 mice. To be noted: 5 mg/kg IP daily for 14 days. The procedure: Effect of THC on survival of EL-4-challenged mice: Groups of 8 C57BL/6 mice were injected […] with 1×10^6 EL-4 tumor cells in a volume of 100 μL PBS. One day following tumor injection, the mice received daily IP injections for 14 days with 5 mg/kg THC in a volume of 500 μL PBS. Control mice received injections with the vehicle control. The mice were observed daily for signs of morbidity and were euthanized. Mice that survived for more than 60 days were rechallenged with live EL-4 cells (1×10^6) and tested for their ability to reject tumor and survive.

The subject of another series is Sup-T1. Nature of the series: Tumor-cell viability in vitro, trypan blue dye exclusion. The class given is cell-based, human. To be noted: Sup-T1, 5 μM THC, 4 hours. As for the experimental part: as §2
A further series deals with primary ALL cells. The series can be described thus: Viability of primary ALL cells in vitro, trypan blue dye exclusion. It counts as cell-based, human. Conditions: ALL no. 1 and ALL no. 2, serum-free medium, 2 hours. From the text:
Primary leukemic cells: Peripheral blood samples were obtained from 2 patients diagnosed with ALL. The samples were referred to as ALL no. 1 and ALL no. 2. ALL no. 1 was obtained from a patient newly diagnosed with common acute lymphoblastic leukemia antigen (CALLA) (CD10)-positive non-B, non-T ALL. ALL no. 2 was obtained from a patient newly diagnosed with terminal deoxynucleotidyl transferase (TdT)-positive T-cell ALL. Informed consent was obtained following institutional guidelines and approval was obtained from the institutional review board of Virginia Commonwealth University. Consent was provided according to the Declaration of Helsinki.
The content of the lymphoblasts was greater than 70% as determined by flow cytometric analysis. Mononuclear cells were isolated by Ficoll-Paque density gradient centrifugation. In this study, the samples were cryopreserved and stored in liquid nitrogen before use. Viability after thawing was determined by trypan blue dye exclusion and was greater than 90%.
Measurement of the effect of cannabinoid receptor aponistson tumor-cell viability in vitro: Tumor cells were adjusted to 1×10^6 cells/mL in medium containing 5% FCS or serum-free medium. […] Finally, the cells were harvested and washed twice in PBS, and the viable cell count was determined by trypan blue dye exclusion.

For the next series, the system named is tumor cells. The series can be described thus: Dose of THC that induced apoptosis in vitro, with and without serum. It counts as cell-based. The procedure:
as §1

The conditions of series [14]: rats injected with 50 mg/kg, within 10 hours of administration; cited from earlier work.
The next series concerns thymus and spleen. Nature of the series: Cellularity of thymus and spleen after administration to C57BL/6 mice. Conditions: resulted from apoptosis in immune cells.
The target of another series is CB2 receptors (Homo sapiens, UniProt P34972). Conditions: human tumor cells, pretreatment with the CB2 antagonist.
Sequence of CB2 receptors (P34972 whole entry): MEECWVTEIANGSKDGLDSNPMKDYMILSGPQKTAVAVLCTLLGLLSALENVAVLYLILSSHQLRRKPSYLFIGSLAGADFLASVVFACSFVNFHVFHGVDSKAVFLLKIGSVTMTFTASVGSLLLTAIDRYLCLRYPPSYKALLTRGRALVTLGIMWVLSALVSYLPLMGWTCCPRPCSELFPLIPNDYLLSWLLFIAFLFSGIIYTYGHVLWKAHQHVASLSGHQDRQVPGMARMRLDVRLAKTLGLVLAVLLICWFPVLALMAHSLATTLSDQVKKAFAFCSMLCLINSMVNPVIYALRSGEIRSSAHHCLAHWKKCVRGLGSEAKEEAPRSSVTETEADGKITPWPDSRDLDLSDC
Setting [15] is: EL-4, serum-free medium, 4 hours.
[16] abbreviates: EL-4, serum-free medium, 5 μM, 4 hours.
Setting [17] is: 5 mg/kg IP on day 10, harvest 24 hours later.

Procedure for CB2 receptors: Next, the cells were harvested, washed twice in PBS, and analyzed for the induction of apoptosis using either the terminal deoxynucleotidyl transferase-mediated end labeling (TUNEL) method or annexin V/propidium iodide (PI) method, as described elsewhere (references 14,15 incorporated herein by reference). To detect apoptosis using the TUNEL method, we washed the cells twice with PBS and fixed them with 4% p-formaldehyde for 30 minutes at room temperature. The cells were next washed with PBS, permeabilized on ice for 2 minutes, and incubated with fluorescein isothiocyanate-dUTP and TdT (Boehringer Mannheim, Indianapolis, Ind.) for 1 hour at 37° C. and 5% CO2. To detect apoptosis using the annexin V/PI method, we washed the cells twice with PBS and stained them with annexin V and PI for 20 minutes at room temperature. The cells were washed twice with PBS. The levels of apoptosis in both the TUNEL and annexin/PI assays were determined by measuring the fluorescence of the cells by flow cytometric analysis. Five thousand cells were analyzed per sample.

For the compound `CCCCCCC(C)(C)c1cc(O)c2c(c1)OC(C)(C)[C@@H]1CC=C(CO)C[C@@H]21` [HU-210], the “induction of apoptosis (annexin/PI) compared with controls” value (“induction … compared with controls” below) in the series on EL-4 tumor cells [1] (setting [15]) was “significant increase in apoptosis”.
With `CCCn1c(C)c(C(=O)c2cccc3ccccc23)c2ccccc21` [JWH-015, (2-Methyl-1-propyl-1H-indol-3-yl)-1-naphthalenylmethanone], the “induction of apoptosis (TUNEL)” value in the series with Jurkat [2] is listed as “significant induction of apoptosis”; in the series on Molt-4 [3] (Molt-4, JWH-015, serum-free medium, 24 hours), “significant induction of apoptosis”. In addition, the “concentration leading to a significant decrease in the number of viable tumor cells” value was no less than 5 µM in the series on Jurkat [4] (serum-free medium, 24 hours) and no less than 5 µM in the series on Molt-4 [5]. Further, the “soluble to, in DMSO” value in series [6] (DMSO) was 10 mM. The “soluble to, in ethanol” value in [6] (ethanol) is reported as 25 mM.
As to `CCCCCc1cc(O)c2c(c1)OC(C)(C)[C@@H]1CCC(C)=C[C@@H]21` [THC, Delta-9-tetrahydrocannabinol], the “concentration leading to a significant reduction in the number of viable cells” value in the series with EL-4 tumor cells [7] (EL-4, medium with 5% FCS, 24 hours) was no less than 10 µM; in the series on LSA tumor cells [8] it was no less than 10 µM; with P815 tumor cells [9], no less than 10 µM. In addition, the “time required to induce tumor-cell killing” value with EL-4 tumor cells [7] (EL-4, serum-free medium) amounted to 4 h. For the same compound, the “concentration leading to a significant decrease in tumor-cell viability” value in the series with EL-4 tumor cells [7] (setting [15]) amounted to 5 µM. In addition, in the series with EL-4 tumor cells [7] (EL-4, serum-free medium, 12 hours), the “concentration causing a significant decrease in tumor-cell viability” value amounted to 3 µM. Also, the “induction of apoptosis (TUNEL)” value with EL-4 tumor cells [1] (EL-4, 5% FCS, 24 hours, 20 μM THC (printed 201M)) is “induced significant apoptosis”; in the series on LSA tumor cells [10], “induced significant apoptosis”; with P815 tumor cells [11] it was “induced significant apoptosis”. Besides, in the series with EL-4 tumor cells [1] (setting [15]), the “induction … compared with controls” value is recorded as “significant increase in apoptosis”. Also, the “induction of apoptosis (TUNEL and annexin/PI)” value with EL-4 tumor cells [1] (setting [16]) is recorded as “increase in the induction of apoptosis”. Moreover, the “viable tumor-cell number in the peritoneal cavity” value with EL-4 tumor cells [12] (1 mg/kg IP on day 10, harvest 24 hours later) is reported as “failed to cause a decrease in cellularity”; with EL-4 tumor cells [12] (3 mg/kg IP on day 10, harvest 24 hours later), “effective”; in the series on EL-4 tumor cells [12] (setting [17]), “effective”. In the series with EL-4 tumor cells [12] (setting [17]), the “proportion of tumor cells showing apoptosis (TUNEL)” value is listed as 77.3%. Also, the “survival of EL-4 tumor-bearing mice” value in the series with EL-4 tumor cells [13] is “significant increase in survival”. Moreover, the “mice that survived the tumor challenge / were cured” value in the series on EL-4 tumor cells [13] (listed as TEC) is “approximately 25%”. The “number of viable tumor cells” value in the series with Jurkat [4] (5 μM THC, 4 hours) is “dramatic reduction in the number of viable tumor cells”; in the series on Sup-T1, “dramatic reduction in the number of viable tumor cells”. In addition, the “concentration resulting in significant reduction in viability” value in the series with primary ALL cells is no less than 5 µM. In addition, the “dose that induced apoptosis in vitro” value with tumor cells (serum-containing medium) is no less than 10 µM; in the series on tumor cells (serum-free medium) it was no less than 3 µM. In series [14], the “THC in the serum” value was 10 µM. Further, in the series on thymus and spleen, the “cellularity of the thymus and spleen” value is “marked decrease in the cellularity of the thymus and spleen”.
For `Cc1c(C(=O)c2cccc3ccccc23)c2cccc3c2n1[C@H](CN1CCOCC1)CO3` [WIN55212], the “induction … compared with controls” value in the series with EL-4 tumor cells [1] (setting [15]) is given as “no significant effect”.
Consider `CCCCC/C=C\C/C=C\C/C=C\C/C=C\CCCC(=O)NCCO` [anandamide], for which the “induction of apoptosis (TUNEL)” value with EL-4 tumor cells [1] (setting [16]) is “slight increase in apoptosis”; in the series on EL-4 tumor cells [1] (EL-4, serum-free medium, 10 μM, 4 hours), “significant levels of apoptosis”. Moreover, the “concentration leading to significant levels of apoptosis (TUNEL)” value in the series on Molt-4 [3] (Molt-4, serum-free medium, 4 hours) is no less than 20 µM.
For SR144528, the “effect of pretreatment on THC-induced apoptosis” value on CB2 receptors was “partially reversed”.
